In series [1] the test system is A549 cells. The series is described as follows: Cell accumulation assay. It is filed as cell-based, human. The note with it: for intracellular drug levels: 15 min after incubation. The protocol:
A549 cells were seed into 96-well-plates as described for the cytotoxicity assay. Cells were cultivated at 37° C. and 5% CO2 until they reached 95% confluency. Cells were treated with 2, 36 or 37 at a final concentration of 10 µg/ml or left untreated. Each condition was assayed in technical dupli-cates with two biological replicates. Cells were treated for 15 min, 30 min and 60 min. After incubation for the respective time point, cells were washed twice with pre-warmed PBS and were then lysed in MeOH and scratched from the surface. Supernatants from medium, wash fluids as well as the cell extracts were subjected to mass spectrometric analysis. For wash fluid and medium samples, calibration and QC samples were prepared using PBS as matrix and spiking the respective compounds into the matrix. For cell extract samples, calibration and QC samples were prepared using MeOH as matrix. For calibration and QC samples compounds were dispensed using a Mantis(R) Formulatrix. […] Supernatants were transferred to a Greiner V-bottom plate, sealed and subjected for HPLC-MS/MS analysis.
Cell samples as well as plasma stability, plasma protein binding and metabolic stability samples were analysed using an Agilent 1290 Infinity II coupled to an AB Sciex 6500plus mass spec-trometer. LC conditions were as follows: column: Agilent Zorbax Eclipse Plus C18, 50×2.1 mm, 1.8 m; temperature: 30° C.; injection volume: 5 l per sample; flow rate: 700 l/min. Solvents: A: water+0.1% formic acid; solvent B: 95% acetonitrile/5% H2O+0.1% formic acid. Gradient for 2, 36 and 37: 99% A from 0 min until 1 min; 99-0% A from 1.0 until 2.2 min, 0% A until 3.2 min. Gradient for naproxene: 99% A from 0 min until 1 min; 99-0% A from 1.0 until 5.5 min, 0% A until 6.0 min. Gradient for […] and […]: 99% A from 0 min until 1.0 min, 99-0% A from 1.0 until 3.5 min, 0% A until 3.7 min. Mass transitions for controls and compounds are depicted in table 5.

Series [2] is described as follows: Prodrug activation assay in human blood plasma spiked with P. aeruginosa PA14 culture supernatant. The following applies: 50% human blood plasma spiked with 10% P. aeruginosa culture supernatant, within 3 h. It is filed as in vitro ADME, Pseudomonas aeruginosa PA14. As for the experimental part: In the prodrug activation assay, the bacterial strain Pseudomonas aeruginosa PA14 wt (DSM 19882) was used. The strain was obtained from the German Collection of Microorganisms and Cell Cultures (DSMZ).
P. aeruginosa PA14 was streaked on LB-agar plates (1% agar) from glycerol stocks and incubated at 37° C. overnight. 2-5 colonies were picked and dispersed in 10 mL LB (10 g/L trypton, 10 g/L NaCl, 5 g/L yeast extracts). This dispersion was incubated overnight at 37° C., 180 rpm under high humidity. The culture was centrifuged (4000 ref, room temperature, 10 min) and the supernatant was filtered (0.22 m pore size). […]
A 1 mM solution of the studied compound was prepared in PBS (150 mM NaCl, 2.6 mM KCl, 1.4 mM KH2PO4, 10 mM Na2HPO4, pH 7.4) with 20% DMSO. 50 μL of this solution was diluted in 950 μL matrix or human plasma (spiked with 10% LB) on ice. After brief vortex, 100 μL were immediately treated with 100 μL ice-cold MeCN (spiked with […] diphenhydramine as internal standard). The rest of the solution was incubated at 37° C. and 500 rpm in an eppendorf thermomixer. At various time points (30, 60, 120, 180 min), 100 L sample were taken and treated as described above. […] The AUC of the parent drug and its cleavage products and the internal standard was quantified using Compass QuantAnalysis quantification software. The relative AUC was calculated by AUC (compound)/AUC(ISTD). Procaine was used as a positive control as it readily degrades in human plasma.

Series [3] in a line: Plasma protein binding assay (RED), murine plasma. It is filed as in vitro ADME. The note with it: mouse blood plasma. As for the experimental part: Plasma protein binding was assessed using the rapid equilibrium device (RED) system from ThermoFisher. […] Dialysis buffer and plasma samples were added to the respective chambers according the manufacturer's protocol. The RED plate was sealed with a tape and incubated at 37° C. for 2 hours at 800 rpm on an Eppendorf MixMate® vortex-mixer. Then samples were withdrawn from the respective chambers. To 25 μl of each dialysis sample, 25 μl of plasma and to 25 μl of plasma sample, 25 l of dialysis buffer was added. […] Samples were incubated for 30 min on ice. Then samples were centrifuged at 4° C. at 2270 ref for 10 min. Supernatants were transferred to Greiner V-bottom 96-well plates and sealed with a tape. Then samples were subjected to HPLC-MS/MS analysis as described in the section ‘HPLC-MS/MS analysis’. The percentage of bound compound was calculated as follows: […]
Cell samples as well as plasma stability, plasma protein binding and metabolic stability samples were analysed using an Agilent 1290 Infinity II coupled to an AB Sciex 6500plus mass spec-trometer. LC conditions were as follows: column: Agilent Zorbax Eclipse Plus C18, 50×2.1 mm, 1.8 m; temperature: 30° C.; injection volume: 5 l per sample; flow rate: 700 l/min. Solvents: A: water+0.1% formic acid; solvent B: 95% acetonitrile/5% H2O+0.1% formic acid. […]

For another series, the target named is LecB PA14 (Pseudomonas aeruginosa, UniProt A0A0H2ZE85). It is filed as binding. The note with it: target LecB PA14. The protocol:
LecB (LecB PAO1 according to Hauck et al. and LecB PA14 according to Sommer et al.): A serial dilution of the test compounds was prepared in TBS/Ca, with 20% DMSO as cosolvent. A concentrated solution of LecB PAO1 or PA14 was diluted in TBS/Ca together with the fluorescent reporter ligand (N-(fluorescein-5-yl)-N′-(α-l-fucopyranosyl ethylen)-thiocarbamide) to yield concentrations of 300 nM and 20 nM, respectively. 10 μL of this mix was added to 10 μL serial dilutions of the test compounds in a black 384-well microtiter plates (Greiner Bio-One, Germany, cat. no. 781900) in triplicates. After centrifugation (2680 ref, 1 min, room temperature), the reactions were incubated for 4-8 h at room temperature in a humidity chamber. Fluorescence was measured and analysed as for LecA. Bottom and top plateaus were fixed according to the control compound in each assay (1-fucose) and the data was re-analysed with these values fixed. A minimum of three independent measurements on three plates was performed for each inhibitor.

The subject of series [4] is A549 cells. Nature of the series: Cytotoxicity assay (MTT). The class given is cell-based, human. The note with it: 24 h. The source says:
Then supernatant was transferred to a 96-well-plate. […] The experiment was repeated at least three times. The error bars indicate the standard deviation.

Several values for one entry are separate records, joined by “and”; a condition that tells them apart may be missing. Identical values can stand only once. Entries after “also recorded” stand apart in the source; their conditions may differ.

A word on the IC50: it is the midpoint of a concentration-inhibition curve. In general, Ki refers to the equilibrium dissociation constant of an inhibitor or competing ligand from its target.

LecB PA14, sequence (A0A0H2ZE85 entry or part of it): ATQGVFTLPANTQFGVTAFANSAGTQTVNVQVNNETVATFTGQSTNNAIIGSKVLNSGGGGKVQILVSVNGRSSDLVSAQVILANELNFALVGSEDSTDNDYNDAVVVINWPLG

As for `CC(C)CC(NC(=O)CNC(=O)C(C)NC(=O)c1ccc(S(=O)(=O)NCC2OC(C)C(O)C(O)C2O)cc1)C(=O)NC(C)C(=O)NC1CCN(c2cc3c(cc2F)c(=O)c(C(=O)O)cn3C2CC2)C1` (stereo not drawn) [Compound 37], in the series with A549 cells [1], the “intracellular cleavage to compound 2” value is reported as “not the case” and the intracellular drug levels result is “very low intracellular drug levels”. The “release of antibiotic cargo” value in series [2] was “release their antibiotic cargo; also recorded: released a significant amount of their antibiotic cargo; also recorded: efficiently released their antibiotic cargo”. Further, the “plasma protein binding mouse” value in series [3] is 30% and 30.1 ± 9.2%. In addition, the IC50 against LecB PA14 worked out at 750 ± 160 nM. The Ki at LecB PA14 (calculated as Ki from IC50, read-out: Ki ± s.d.) was 270 ± 60 nM. In the series on A549 cells [4], this compound returned an IC50 of more than 50000 nM.
On to `CC(C)C[C@H](NC(=O)CNC(=O)[C@H](C)NC(=O)c1ccc(S[C@@H]2O[C@H](CO)[C@H](O)[C@H](O)[C@H]2O)cc1)C(=O)N[C@@H](C)C(=O)N[C@H]1CCN(c2cc3c(cc2F)c(=O)c(C(=O)O)cn3C2CC2)C1` [Compound 36], for which, in the series with A549 cells [1], the “intracellular cleavage to compound 2” value was “not the case” and the intracellular drug levels result is reported as “very low intracellular drug levels”. For the same compound, the intracellular concentration in the series on A549 cells [1] (10 μg/ml, after 30 and 60 min) lay within 0.013 to 0.016 µg/mL. Moreover, the “release of antibiotic cargo” value in series [2] is “release their antibiotic cargo; also recorded: released a significant amount of their antibiotic cargo; also recorded: efficiently released their antibiotic cargo”. Also, the “plasma protein binding mouse” value in series [3] is 74%.

Source of the values: US20250295790A1, “LECTIN-TARGETING CONJUGATES” (Helmholtz-Zentrum für Infektionsforschung GmbH, priority 2021, published 2025).
